Patent US9174952B2, “Substituted 3-thiazoloamino-propionic acid derivatives and their use as pharmaceuticals” (SANOFI, priority 2011, dated 2015)
pIC50: −log10 of the molar value.

Target: T1, Recombinant human cathepsin A (Homo sapiens, UniProt P10619)
T1 construct: Recombinant human cathepsin A (residues 29-480, with a C-terminal 10-His tag); 10-His (C); purchased R&D Systems 1049-SE
T1 sequence (P10619 29-326 limits assumed): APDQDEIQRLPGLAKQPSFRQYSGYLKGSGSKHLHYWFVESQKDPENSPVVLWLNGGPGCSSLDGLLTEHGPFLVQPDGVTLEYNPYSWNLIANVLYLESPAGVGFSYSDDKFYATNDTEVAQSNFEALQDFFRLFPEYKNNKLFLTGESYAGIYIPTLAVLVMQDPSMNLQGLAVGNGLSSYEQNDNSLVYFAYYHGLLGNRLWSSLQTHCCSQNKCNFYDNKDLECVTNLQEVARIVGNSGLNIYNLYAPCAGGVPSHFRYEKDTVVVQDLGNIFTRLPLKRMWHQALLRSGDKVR
T1 sequence (P10619 327-480 limits assumed): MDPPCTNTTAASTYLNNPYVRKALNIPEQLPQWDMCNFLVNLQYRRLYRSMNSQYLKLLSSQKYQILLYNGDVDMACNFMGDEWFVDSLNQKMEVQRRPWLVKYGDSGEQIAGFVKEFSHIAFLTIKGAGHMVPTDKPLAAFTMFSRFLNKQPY
Assay: Cathepsin A inhibitory activity
Type: biochemical
Conditions: activated recombinant human cathepsin A 833 ng/ml, Bodipy FL-labeled bradykinin substrate 2 μM, pH 5.5, room temperature
Procedure: a) Cathepsin A Inhibitory Activity
Recombinant human cathepsin A (residues 29-480, with a C-terminal 10-His tag; R&D Systems, #1049-SE) was proteolytically activated with recombinant human cathepsin L (R&D Systems, #952-CY). Briefly, cathepsin A was incubated at 10 μg/ml with cathepsin L at 1 μg/ml in activation buffer (25 mM 2-(morpholin-4-yl)-ethanesulfonic acid (MES), pH 6.0, containing 5 mM dithiothreitol (DTT)) for 15 min at 37° C. Cathepsin L activity was then stopped by the addition of the cysteine protease inhibitor E-64 (N-(trans-epoxysuccinyl)-L-leucine-4-guanidinobutylamide; Sigma-Aldrich, # E3132; dissolved in activation buffer/DMSO) to a final concentration of 10 μM.
The activated cathepsin A was diluted in assay buffer (25 mM MES, pH 5.5, containing 5 mM DTT) and mixed with the test compound (dissolved in assay buffer containing (v/v) 3% DMSO) or, in the control experiments, with the vehicle in a multiple assay plate. After incubation for 15 min at room temperature, as substrate then bradykinin carrying an N-terminal ®Bodipy FL (4,4-difluoro-5,7-dimethyl-4-bora-3a,4a-diaza-s-indacene-3-propionyl) label (JPT Peptide Technologies GmbH; dissolved in assay buffer) was added to the mixture. The final concentration of cathepsin A was 833 ng/ml and the final concentration of labeled bradykinin 2 μM. After incubation for 15 min at room temperature the reaction was stopped by the addition of stop buffer (130 mM 2-(4-(2-hydroxy-ethyl)-piperazin-1-yl)-ethanesulfonic acid, pH 7.4, containing (v/v) 0.013% ®Triton X-100, 0.13% Coating Reagent 3 (Caliper Life Sciences), 6.5% DMSO and 20 μM ebelactone B (Sigma, # E0886)).
Uncleaved substrate and product were then separated by a microfluidic capillary electrophoresis on a LabChip® 3000 Drug Discovery System (12-Sipper-Chip; Caliper Life Sciences) and quantified by determination of the respective peak areas. Substrate turnover was calculated by dividing product peak area by the sum of substrate and product peak areas, and the enzyme activity and the inhibitory effect of the test compound thus quantified. From the percentage of inhibition of cathepsin A activity observed with the test compound at several concentrations, the inhibitory concentration IC50, i.e. the concentration which effects 50% inhibition of enzyme activity was, calculated.

Structure (SMILES)	pIC50
COc1cccc([C@H](CC(=O)O)NC(=O)c2csc(-c3ccccc3Cl)n2)c1 [Example 79, (S)-3-{[2-(2-Chloro-phenyl)-thiazole-4-carbonyl]-amino}-3-(3-methoxy-phenyl)-propionic acid]	6.15
O=C(O)C[C@H](NC(=O)c1csc(-c2ccccc2F)n1)c1cccc(Cl)c1 [Example 43, (S)-3-(3-Chloro-phenyl)-3-{[2-(2-fluoro-phenyl)-thiazole-4-carbonyl]-amino}-propionic acid]	6.16
O=C(O)C[C@@H](Cc1ccccc1)NC(=O)c1nc(-c2ccccc2)cs1 [Example 1, (R)-4-Phenyl-3-[(4-phenyl-thiazole-2-carbonyl)-amino]-butyric acid]	5.77
O=C(O)C[C@H](NC(=O)c1csc(-c2ccc(C(F)(F)F)cc2)n1)c1ccc(Cl)cc1Cl [Example 25, (S)-3-(2,4-Dichloro-phenyl)-3-{[2-(4-trifluoromethyl-phenyl)-thiazole-4-carbonyl]-amino}-propionic acid]	5.20
COc1ccc(-c2nc(C(=O)N[C@@H](CC(=O)O)c3ccccc3C)cs2)cc1 [Example 5, (S)-3-{[2-(4-Methoxy-phenyl)-thiazole-4-carbonyl]-amino}-3-o-tolyl-propionic acid]	6.43
O=C(O)C[C@H](NC(=O)c1csc(-c2cccc(Cl)c2Cl)n1)c1ccccc1Cl [Example 28, (S)-3-(2-Chloro-phenyl)-3-{[2-(2,3-dichloro-phenyl)-thiazole-4-carbonyl]-amino}-propionic acid]	6.55
O=C(O)[C@@H]1CN(C(=O)c2nc(-c3ccc(C(F)(F)F)cc3)cs2)C[C@H]1c1ccccc1 [Example 103, (3S,4R)-4-Phenyl-1-[4-(4-trifluoromethyl-phenyl)-thiazole-2-carbonyl]-pyrrolidine-3-carboxylic acid]	< 5.00
O=C(O)C[C@H](NC(=O)c1nc(-c2ccccc2)cs1)c1cccc(F)c1 [Example 55, (S)-3-(3-Fluoro-phenyl)-3-[(4-phenyl-thiazole-2-carbonyl)-amino]-propionic acid]	6.27
O=C(O)C[C@H](NC(=O)c1nc(-c2ccccc2)cs1)c1cccc(Cl)c1Cl [Example 95, (S)-3-(2,3-Dichloro-phenyl)-3-[(4-phenyl-thiazole-2-carbonyl)-amino]-propionic acid]	7.42
O=C(O)C[C@H](NC(=O)c1csc(-c2ccccc2)n1)c1ccc(Cl)cc1Cl [Example 22, (S)-3-(2,4-Dichloro-phenyl)-3-[(2-phenyl-thiazole-4-carbonyl)-amino]-propionic acid]	6.26
O=C(O)C[C@H](NC(=O)c1csc(-c2ccccc2F)n1)c1cccc(F)c1 [Example 49, (S)-3-(3-Fluoro-phenyl)-3-{[2-(2-fluoro-phenyl)-thiazole-4-carbonyl]-amino}-propionic acid]	6.14
COc1ccc([C@H](CC(=O)O)NC(=O)c2csc(-c3ccccc3)n2)cc1 [Example 59, (S)-3-(4-Methoxy-phenyl)-3-[(2-phenyl-thiazole-4-carbonyl)-amino]-propionic acid]	6.01
O=C(N[C@H](C(=O)O)C1CCCCC1)c1csc(-c2cccc(Cl)c2)n1 [Example 57, (S)-{[2-(3-Chloro-phenyl)-thiazole-4-carbonyl]-amino}-cyclohexyl-acetic acid]	< 5.00
O=C(O)C[C@H](NC(=O)c1csc(-c2ccc(Cl)cc2)n1)c1ccccc1C(F)(F)F [Example 104, (S)-3-{[2-(4-Chloro-phenyl)-thiazole-4-carbonyl]-amino}-3-(2-trifluoromethyl-phenyl)-propionic acid]	5.27
COc1cccc([C@H](CC(=O)O)NC(=O)c2csc(-c3ccccc3F)n2)c1 [Example 85, (S)-3-{[2-(2-Fluoro-phenyl)-thiazole-4-carbonyl]-amino}-3-(3-methoxy-phenyl)-propionic acid]	6.06
O=C(O)C[C@H](NC(=O)c1csc(-c2cccc(Cl)c2)n1)c1ccc(Cl)cc1Cl [Example 91, (S)-3-{[2-(3-Chloro-phenyl)-thiazole-4-carbonyl]-amino}-3-(2,4-dichloro-phenyl)-propionic acid]	5.72
Cc1cc(C)n(-c2nc(C(=O)N[C@@H](CC(=O)O)c3ccccc3C)cs2)n1 [Example 6, (S)-3-{[2-(3,5-Dimethyl-pyrazol-1-yl)-thiazole-4-carbonyl]-amino}-3-o-tolyl-propionic acid]	< 5.00
COc1cccc([C@H](CC(=O)O)NC(=O)c2csc(-c3ccccc3Cl)n2)c1OC [Example 74, (S)-3-{[2-(2-Chloro-phenyl)-thiazole-4-carbonyl]-amino}-3-(2,3-dimethoxy-phenyl)-propionic acid]	6.95
O=C(O)C[C@H](NC(=O)c1csc(-c2ccc(Cl)cc2)n1)c1ccccc1 [Example 110, (S)-3-{[2-(4-Chloro-phenyl)-thiazole-4-carbonyl]-amino}-3-phenyl-propionic acid]	5.41
O=C(O)CC(NC(=O)c1csc(-c2ccccc2Cl)n1)C1CCCCC1 (stereo not drawn) [Example 119, 3-{[2-(2-Chloro-phenyl)-thiazole-4-carbonyl]-amino}-3-cyclohexyl-propionic acid]	6.17
COc1ccc([C@H](CC(=O)O)NC(=O)c2csc(-c3ccccc3F)n2)cc1 [Example 86, (S)-3-{[2-(2-Fluoro-phenyl)-thiazole-4-carbonyl]-amino}-3-(4-methoxy-phenyl)-propionic acid]	6.01
O=C(O)C[C@H](NC(=O)c1nc(-c2ccccc2)cs1)c1cccc(C(F)(F)F)c1 [Example 99, (S)-3-[(4-Phenyl-thiazole-2-carbonyl)-amino]-3-(3-trifluoromethyl-phenyl)-propionic acid]	5.48
Cc1ccccc1[C@H](CC(=O)O)NC(=O)c1nc(-c2ccccc2)cs1 [Example 136, (S)-3-[(4-Phenyl-thiazole-2-carbonyl)-amino]-3-o-tolyl-propionic acid]	7.05
O=C(O)C[C@H](NC(=O)c1csc(-c2ccc(Cl)cc2)n1)c1cccc(Cl)c1 [Example 45, (S)-3-(3-Chloro-phenyl)-3-{[2-(4-chloro-phenyl)-thiazole-4-carbonyl]-amino}-propionic acid]	5.45
COc1cccc([C@H](CC(=O)O)NC(=O)c2csc(-c3ccccc3)n2)c1 [Example 52, (S)-3-(3-Methoxy-phenyl)-3-[(2-phenyl-thiazole-4-carbonyl)-amino]-propionic acid]	5.54
Cc1ccccc1[C@H](CC(=O)O)NC(=O)c1csc(-c2ccncc2)n1 [Example 7, (S)-3-[(2-Pyridin-4-yl-thiazole-4-carbonyl)-amino]-3-o-tolyl-propionic acid]	6.09
O=C(O)C[C@H](NC(=O)c1csc(-c2ccc(Cl)cc2)n1)c1cccc(Cl)c1Cl [Example 100, (S)-3-{[2-(4-Chloro-phenyl)-thiazole-4-carbonyl]-amino}-3-(2,3-dichloro-phenyl)-propionic acid]	6.16
O=C(O)C[C@H](NC(=O)c1csc(-c2cccc(Cl)c2Cl)n1)c1cccc(F)c1 [Example 67, (S)-3-{[2-(2,3-Dichloro-phenyl)-thiazole-4-carbonyl]-amino}-3-(3-fluoro-phenyl)-propionic acid]	6.60
O=C(O)C[C@H](NC(=O)c1csc(-c2cccc(Cl)c2)n1)c1cccc(Cl)c1 [Example 44, (S)-3-(3-Chloro-phenyl)-3-{[2-(3-chloro-phenyl)-thiazole-4-carbonyl]-amino}-propionic acid]	5.53
COc1ccc([C@H](CC(=O)O)NC(=O)c2csc(-c3ccc(Cl)cc3)n2)cc1 [Example 108, (S)-3-{[2-(4-Chloro-phenyl)-thiazole-4-carbonyl]-amino}-3-(4-methoxy-phenyl)-propionic acid]	5.47
